According to US8765730B2 (Hoffmann-La Roche Inc, priority 2010, dated 2014):
Like-named read-outs stand apart in the source and are kept apart here.

Target: T1, human GPBAR1 receptor (Homo sapiens, UniProt Q8TDU6)
T1 construct: expressed in transfected cells
T1 sequence (Q8TDU6 1-330): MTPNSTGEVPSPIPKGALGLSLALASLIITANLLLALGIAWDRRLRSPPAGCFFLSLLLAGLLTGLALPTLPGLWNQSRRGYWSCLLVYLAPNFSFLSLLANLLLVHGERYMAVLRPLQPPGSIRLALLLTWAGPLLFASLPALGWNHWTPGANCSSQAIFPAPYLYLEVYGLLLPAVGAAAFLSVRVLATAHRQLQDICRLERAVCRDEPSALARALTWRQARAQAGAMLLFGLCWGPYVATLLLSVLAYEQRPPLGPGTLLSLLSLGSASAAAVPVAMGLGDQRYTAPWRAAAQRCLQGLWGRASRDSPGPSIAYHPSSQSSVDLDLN
Experiment: functional cAMP assay in CHO-dhfr(minus) cells expressing human GPBAR1 receptors
Format: cell-based
Conditions: 30 min at 30° C.
Procedure, shortened: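 Agonist cAMP read-out: stable GPBAR1 CHO-dhfr− clone, 30 min compound exposure at 30° C following 30 min IBMX (1 mM) preincubation in Krebs Ringer bicarbonate. Time-resolved energy-transfer detection gives EC50; parental CHO cells serve as counter-screen.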

[1] = human EC50, functional cAMP assay
[2] = functional cAMP assay, read-out: human EC50

Row | EC50 [1] [µM] | EC50 [2] [µM] | SMILES
1 | 0.021 |  | Cc1cc(/C(C[C@H](c2ccc(C3CN(S(N)(=O)=O)C3)cc2)c2ccccc2C)=N/O)ccn1 [Example 485, (R,E)-3-(4-(3-(Hydroxyimino)-3-(2-methylpyridin-4-yl)-1-o-tolylpropyl)phenyl)azetidine-1-sulfonamide]
2 | 0.043 |  | Cc1cc(C(CC(c2ccc(-c3ccc(C(=O)O)cc3F)cc2)c2ccccc2C)=NO)ccn1 (racemic) [Example 82, 2-Fluoro-4′-[3-[hydroxyimino]-3-(2-methyl-pyridin-4-yl)-1-o-tolyl-propyl]-biphenyl-4-carboxylic acid]
3 | 0.011 |  | Cc1cc(/C(C[C@H](c2ccc(-c3nnc(CC(=O)O)o3)cc2)c2ccccc2C)=N/O)ccn1 (single isomer, unassigned) [Example 422, (5-{4-[(−)-3-[(E)-Hydroxyimino]-3-(2-methyl-pyridin-4-yl)-1-o-tolyl-propyl]-phenyl}-[1,3,4]oxadiazol-2-yl)-acetic acid]
4 | 0.558 |  | Cc1cc(=O)n(C)cc1/C(CC(c1ccc(Br)cc1)c1ccccc1C)=N\O (stereo not shown) [Example 200, 5-{3-(4-Bromo-phenyl)-1-[(Z)-hydroxyimino]-3-o-tolyl-propyl}-1,4-dimethyl-1H-pyridin-2-one]
5 |  | 0.005 | COC1CN(c2ccc([C@@H](C/C(=N\O)c3ccnc(C)c3)c3ccccc3C)cc2)C1 [Example 270, (E,R)-3-[4-(3-Methoxy-azetidin-1-yl)-phenyl]-1-(2-methyl-pyridin-4-yl)-3-o-tolyl-propan-1-one oxime]
6 | 0.041 |  | Cc1cc(/C(C[C@H](c2ccc(Br)cc2)c2ccc(F)cc2F)=N/O)ccn1 (single isomer, unassigned) [Example 426, (−)-3-(4-Bromo-phenyl)-3-(2,4-difluoro-phenyl)-1-(2-methyl-pyridin-4-yl)-propan-1-one oxime]
7 | 0.364 |  | Cn1cc(/C(CC(c2ccc(-c3ccc(CC#N)cc3)cc2)c2ccc(Cl)cc2F)=N/O)ccc1=O (stereo not shown) [Example 459, {4′-[1-(4-Chloro-2-fluoro-phenyl)-3-[(E)-hydroxyimino]-3-(1-methyl-6-oxo-1,6-dihydro-pyridin-3-yl)-propyl]-biphenyl-4-yl}-acetonitrile]
8 | 0.026 |  | Cc1cc(/C(C[C@H](c2ccc(C(=O)NC[C@H](C)O)cc2)c2ccccc2C)=N/O)ccn1 [Example 275, 4-[(R)-3-[(E)-Hydroxyimino]-3-(2-methyl-pyridin-4-yl)-1-o-tolyl-propyl]-N—((S)-2-hydroxy-propyl)-benzamide]
9 | 0.025 |  | Cn1cc(/C(CC(c2ccc(Br)cc2)c2ccc(Cl)cc2F)=N/O)ccc1=O (stereo not shown) [Example 237, 5-{3-(4-Bromo-phenyl)-3-(4-chloro-2-fluoro-phenyl)-1-[(E)-hydroxyimino]-propyl}-1-methyl-1H-pyridin-2-one]
10 | 0.49 |  | O=C(O)c1cccc(-c2ccc(C(C/C(=N\O)c3ccncc3)c3ccccc3)cc2)c1 (stereo not shown) [Example 76, 4′-{3-[(E)-Hydroxyimino]-1-phenyl-3-pyridin-4-yl-propyl}-biphenyl-3-carboxylic acid]
11 | 0.048 |  | Cc1ccccc1[C@H](C/C(=N\O)c1ccc(=O)n(C)c1)c1ccc(C2CCN(S(N)(=O)=O)CC2)cc1 [Example 510, (R,E)-4-(4-(3-(Hydroxyimino)-3-(1-methyl-6-oxo-1,6-dihydropyridin-3-yl)-1-o-tolylpropyl)phenyl)piperidine-1-sulfonamide]
12 | 0.33 |  | Cc1cc(Cl)ccc1C(C/C(=N\O)c1ccc(=O)n(C)c1)c1ccc(C(=O)NCCS(C)(=O)=O)cc1 (stereo not shown) [Example 336, (E)-4-(1-(4-Chloro-2-methylphenyl)-3-(hydroxyimino)-3-(1-methyl-6-oxo-1,6-dihydropyridin-3-yl)propyl)-N-(2-(methylsulfonyl)ethyl)benzamide]
13 | 0.006 |  | Cn1cc(/C(CC(c2ccc(Br)cc2)c2ccc(F)cc2F)=N/O)ccc1=O (stereo not shown) [Example 402, 5-{3-(4-Bromo-phenyl)-3-(2,4-difluoro-phenyl)-1-[(E)-hydroxyimino]-propyl}-1-methyl-1H-pyridin-2-one]
14 |  | 0.031 | Cc1ccccc1[C@H](C/C(=N\O)c1ccnc(CO)c1)c1ccc(N2CCC(C(=O)O)CC2)cc1 [Example 374, (R,E)-1-(4-(3-(Hydroxyimino)-3-(2-(hydroxymethyl)pyridin-4-yl)-1-o-tolylpropyl)phenyl)-piperidine-4-carboxylic acid]
15 | 0.039 |  | Cc1cccnc1C(C/C(=N\O)c1ccncc1)c1ccc(N(C)C)cc1 (stereo not shown) [Example 65, (E)-3-(4-Dimethylamino-phenyl)-3-(3-methyl-pyridin-2-yl)-1-pyridin-4-yl-propan-1-one oxime]
16 | 0.666 |  | Cc1ccccc1[C@H](C/C(=N\O)c1ccc(=O)n(C)c1)c1ccc(CC(=O)O)cc1 [Example 493, (R,E)-2-(4-(3-(Hydroxyimino)-3-(1-methyl-6-oxo-1,6-dihydropyridin-3-yl)-1-o-tolylpropyl)phenyl)acetic acid]

Row | EC50 [1] [µM] | EC50 [2] [µM] | SMILES
17 | 0.017 |  | Cc1cc(/C(CC(c2ccc(-c3ccc(C(=O)O)cc3)cc2)c2ccc(Cl)cc2C)=N/O)ccn1 (stereo not shown) [Example 139, (E)-4′-(1-(4-chloro-2-methylphenyl)-3-(hydroxyimino)-3-(2-methylpyridin-4-yl)propyl)biphenyl-4-carboxylic acid]
18 | 0.177 |  | Cc1cc(C(C[C@@H](c2ccc(-c3ccc(C(=O)N[C@H](C)c4ccccc4)cc3)cc2)c2ccccc2C)=NO)ccn1 (racemic) [Example 97, 4′-[(S)-3-[Hydroxyimino]-3-(2-methyl-pyridin-4-yl)-1-o-tolyl-propyl]-biphenyl-4-carboxylic acid ((R)-1-phenyl-ethyl)-amide]
19 | 0.155 |  | Cc1cc(/C(CC(c2ccc(Br)cc2)c2ccc(Cl)cc2C)=N/O)ccn1 (stereo not shown) [Example 138, (E)-3-(4-Bromophenyl)-3-(4-chloro-2-methylphenyl)-1-(2-methylpyridin-4-yl)propan-1-one oxime]
20 | 0.591 |  | Cc1cc(C(CC(c2ccc(Br)cc2)C(C)(C)C)=NO)ccn1 (racemic) [Example 129, 3-(4-Bromo-phenyl)-4,4-dimethyl-1-(2-methyl-pyridin-4-yl)-pentan-1-one oxime]
21 | 0.05 |  | Cc1cc(/C(C[C@@H](c2ccc(N3CCOCC3)cc2)c2ccccc2C)=N/O)ccn1 [Example 381, (S,E)-1-(2-Methylpyridin-4-yl)-3-(4-morpholinophenyl)-3-o-tolylpropan-1-one oxime]
22 | 0.763 |  | Cc1ccccc1C(C/C(=N\O)c1cc(F)ccc1F)c1ccc(Br)cc1 (stereo not shown) [Example 52, (E)-3-(4-Bromo-phenyl)-1-(2,5-difluoro-phenyl)-3-o-tolyl-propan-1-one oxime]
23 | 0.029 |  | Cn1cc(/C(CC(c2ccc(-c3ccc(C(=O)O)c(F)c3)cc2)c2ccc(Cl)cc2Cl)=N/O)ccc1=O (stereo not shown) [Example 473, 4′-[1-(2,4-Dichloro-phenyl)-3-[(E)-hydroxyimino]-3-(1-methyl-6-oxo-1,6-dihydro-pyridin-3-yl)-propyl]-3-fluoro-biphenyl-4-carboxylic acid]
24 | 4.36 |  | Cc1ccccc1C(C/C(=N\O)c1cc(F)cc(F)c1F)c1ccc(Br)cc1 (stereo not shown) [Example 48, (E)-3-(4-Bromo-phenyl)-3-o-tolyl-1-(2,3,5-trifluoro-phenyl)-propan-1-one oxime]
25 | 0.489 |  | Cc1cc(Cl)ccc1C(C/C(=N\O)c1ccc(=O)n(C)c1)c1ccc(NS(=O)(=O)C2CC2)cc1 (stereo not shown) [Example 354, Cyclopropanesulfonic acid {4-[1-(4-chloro-2-methyl-phenyl)-3-[(E)-hydroxyimino]-3-(1-methyl-6-oxo-1,6-dihydro-pyridin-3-yl)-propyl]-phenyl}-amide]
26 | 0.018 |  | Cc1cc(Cl)ccc1[C@@H](C/C(=N\O)c1ccc(=O)n(C)c1)c1ccc(-c2ccc(NS(C)(=O)=O)cc2)cc1 (single isomer, unassigned) [Example 416, (+)-N-{4′-[1-(4-Chloro-2-methyl-phenyl)-3-[(E)-hydroxyimino]-3-(1-methyl-6-oxo-1,6-dihydro-pyridin-3-yl)-propyl]-biphenyl-4-yl}-methanesulfonamide]
27 | 0.348 |  | CCOC(=O)c1ccc(-c2ccc([C@@H](C/C(=N\O)c3ccc(=O)n(C)c3)c3ccc(Cl)cc3F)cc2)s1 [Example 467, 5-{4-[(−)-1-(4-Chloro-2-fluoro-phenyl)-3-[(E)-hydroxyimino]-3-(1-methyl-6-oxo-1,6-dihydro-pyridin-3-yl)-propyl]-phenyl}-thiophene-2-carboxylic acid ethyl ester]
28 | 0.041 |  | Cc1cc(C(CC(c2ccc(CCCCC(=O)O)cc2)c2ccccc2C)=NO)ccn1 (racemic) [Example 115, 5-{4-[3-[Hydroxyimino]-3-(2-methyl-pyridin-4-yl)-1-o-tolyl-propyl]-phenyl}-pentanoic acid]
29 | 0.004 |  | CCn1cc(/C(CC(c2ccc(Br)cc2)c2ccccc2C)=N/O)ccc1=O (stereo not shown) [Example 164, 5-{3-(4-Bromo-phenyl)-1-[(E)-hydroxyimino]-3-o-tolyl-propyl}-1-ethyl-1H-pyridin-2-one]
30 | 0.186 |  | Cn1cc(/C(CC(c2ccc(C(=O)NC3CC3)c(F)c2)c2ccccc2Cl)=N/O)ccc1=O (stereo not shown) [Example 233, (E)-4-(1-(2-Chlorophenyl)-3-(hydroxyimino)-3-(1-methyl-6-oxo-1,6-dihydropyridin-3-yl)propyl)-N-cyclopropyl-2-fluorobenzamide]
31 | 0.024 |  | Cc1cc(/C(C[C@H](c2ccc(C3CCC(C(=O)O)CC3)cc2)c2ccccc2C)=N/O)ccn1 (stereo partly drawn) [Example 490, (R,E)-4-(4-(3-(Hydroxyimino)-3-(2-methylpyridin-4-yl)-1-o-tolylpropyl)phenyl)-cyclohexanecarboxylic acid]
